The values that follow come from PubChem BioAssay AID493003 (Sanford-Burnham Center for Chemical Genomics, 2010).

pIC50: −log10 of the molar value. The source made the active and inactive calls. The rule behind the calls is not given here.

In general, pIC50 refers to −log10 of the IC50, conventionally taken in molar units. Broadly, the IC50 is the concentration needed to halve the response being measured.

The assay deals with S. cerevisiae tim10-1 mutant growth, luminescence. The assay can be described thus: growth inhibitors of tim10-1 mutant yeast, dose response, luminescence, S. cerevisiae, uHTS hits (AID 493003).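 Note: yeast growth measured after about 22 hours at 25 °C.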
Turning to `CCc1cccc(NC(=O)CS(=O)Cc2nc(-c3ccc(C)cc3)oc2C)c1` (stereo unspecified), the pIC50 is 4.57.

With `COc1cccc(N2C(C(C)=O)=NN(c3ccccc3)C2c2ccc(N3CCOCC3)cc2)c1` (stereo unspecified), the IC50 was > 100 µM (inactive).

`CCOc1ccccc1N1CCN(C(=O)Nc2ccc(F)c(Cl)c2)CC1`: the pIC50 was 4.22.

Turning to `CSc1ccccc1NC(=O)C1CC(c2c(F)cccc2Cl)=NO1` (stereo unspecified), the negative logarithm of the IC50 (pIC50) was 4.59.

As to `CCOC(=O)c1ccc(NC(=O)CC2OCCN(CC)C2=O)cc1` (stereo unspecified), the pIC50 was 5.00.

With `Nc1ccc2oc(-c3cccc(Br)c3)nc2c1`, the pIC50 was 4.55.

Consider `Cc1[nH]c2ccccc2c1C(O)CN1CCN(c2cccc(C(F)(F)F)c2)CC1` (stereo unspecified), for which the pIC50 is 4.67.

As for `COc1ccc(-c2[nH]ncc2N=Nc2ccccc2)cc1`, the pIC50 was 4.78.

For `Cc1nc(SCC(=O)N2CCN(c3ccccc3)CC2)c2oc3ccccc3c2n1`, the pIC50 was 4.39.

On to `O=C1CS(=O)(=O)N(Cc2cccc(F)c2)c2ccc(Br)cc21`, for which the pIC50 is 5.26.

With `Fc1cccc(-c2cc3nc4c(c(NCc5ccco5)n3n2)CCCC4)c1`, the pIC50 was 4.47.

`N/C(=N\OC(=O)c1ccc(Cl)cc1)c1ccc(Cl)cc1`: the pIC50 was 5.48.

Regarding `CCOC(=O)C1CCN(C2CC(=O)N(c3cccc(Cl)c3)C2=O)CC1` (stereo unspecified), the pIC50 is 4.43.

Consider `O=C(c1ccc2nc(N3CCOCC3)sc2c1)N1CCC(Cc2ccccc2)CC1`, for which the pIC50 was 4.78.

As to `CCCc1[nH]c2ccc(C#N)cc2c1CCC`, the pIC50 was 4.38.

Take `CCN1CCN(C(c2cccnc2)c2cc(Cl)c3cccnc3c2O)CC1` (stereo unspecified): the pIC50 was 4.74.

With `COc1ccc(C/C(=N\OC(C)=O)c2ccc(OC)cc2)cc1`, the pIC50 is 4.59.

As for `Cn1ncc2c(Nc3cccc(Cl)c3)nc(Nc3cccc(Cl)c3)nc21`, the pIC50 is 4.61.

With `CC(C)Nc1nnc(Sc2ccc(Cl)cc2[N+](=O)[O-])s1`, the pIC50 was 5.08.

As for `Cc1nnc(SC2CC(=O)N(c3ccccc3)C2=O)s1` (stereo unspecified), the pIC50 is 4.51.

Consider `CC1(C)CC2CC(C)(CN2C(=S)NC(=O)c2ccccc2Cl)C1` (stereo unspecified), for which the pIC50 is 4.22.

`Cc1nn(Cc2c(F)c(F)c(F)c(F)c2F)c(C)c1NC(=O)c1ccc(COc2ccc(Cl)cc2Cl)o1`: the pIC50 was 4.59.

`CC(=O)N1CCN(c2cc(N3CCc4ccccc4C3)c(F)cc2[N+](=O)[O-])CC1`: the pIC50 is 5.00.

For the molecule `CCOC(=O)c1c(N)sc2c(OC)c(Br)ccc12`, the pIC50 is 4.52.

Turning to `CCc1c(C)c2c(C)nn(-c3ccccc3)c2oc1=O`, the pIC50 was 4.76.

Consider `COc1cc(/C=C/C(=O)CC(=O)/C=C/c2ccc(O)c(OC)c2)ccc1O`, for which the pIC50 is 4.71.

In the case of `Cc1cc(/C=C\c2ccc3cc(N(C)C)ccc3[n+]2C)c(C)n1-c1ccccc1`, the pIC50 is 5.02.

For the molecule `COc1ccc(Cl)cc1NC(=O)CN(C)C(=O)C12CC3CC(CC(Cl)(C3)C1)C2`, the pIC50 was 5.02.

As to `CC(NC(=O)c1cccc(Cl)c1)C1CC2CCC1C2` (stereo unspecified), the pIC50 was 4.37.

With `O=C(NCCC1=CCCCC1)NC12CC3CC(CC(C3)C1)C2`, the pIC50 is 4.29.

Consider `O=Cc1c[nH]c2cccc(OCc3ccccc3)c12`, for which the pIC50 was 4.56.

Regarding `Cc1cc(N)n2ncc(-c3ccc(F)cc3)c2n1`, the pIC50 was 4.44.

Take `COc1ccc(/C=C/C(=O)c2ccccc2)cc1Cn1nnc2ccccc21`: the pIC50 was 5.19.

`CCOC(=O)c1ccc(NC(=O)c2cccc3c2C(=O)N(CC2CCCO2)C3)cc1` (stereo unspecified): the pIC50 is 4.26.

In the case of `O=S(=O)(NCCNc1ncc(C(F)(F)F)cc1Cl)C(F)(F)F`, the pIC50 is 4.58.

In the case of `Cc1ccc(C(=O)N2CCN(c3ccc(NC(=O)c4ccc(Br)o4)cc3)CC2)cc1`, the pIC50 is 4.49.

For `COc1ccc(C)cc1NC(=O)NCCC1=CCCCC1`, the pIC50 is 4.49.

For `N#C/C(=N/Nc1ccc(OC(F)(F)F)cc1)C(N)=S`, the pIC50 was 5.28.

For `Cc1ccc(F)c(NC(=O)c2c(-c3ccccc3)noc2C)c1`, the pIC50 was 4.23.

As to `O=C(Nc1ccc(N2CCN(C(=O)c3ccccc3)CC2)c(Cl)c1)c1ccc(Br)o1`, the pIC50 was 4.38.

As for `COc1ccccc1-c1cc2ccccc2[nH]1`, the pIC50 is 4.33.

Regarding `O=S(=O)(Nc1cccc2cccnc12)c1ccc(S(=O)(=O)N2CCCC2)cc1`, the pIC50 was 4.39.

Turning to `C=Cc1ncc(OC)c2c1[nH]c1ccccc12`, the pIC50 is 4.60.

In the case of `CC/C(=N\NC(=S)Nc1cc(C)ccc1C)c1ccc(OC(F)F)cc1`, the pIC50 is 4.46.

On to `Cn1c(Cl)cnc1C1CC(=O)c2cc(Cl)ccc2O1` (stereo unspecified), for which the pIC50 was 5.08.

Regarding `CCOC(=O)C1CCN(C(=O)c2oc3ccc4c(c3c2C)C(O)CC2(CCCCC2)O4)CC1` (stereo unspecified), the pIC50 was 4.59.

For `Cc1ccc(-c2cc(-c3cccc(F)c3)n[nH]2)c(O)c1`, the pIC50 is 4.39.

With `Cc1ccc(NC2=C/C(=N\S(=O)(=O)c3cccs3)c3ccccc3C2=O)c(C)c1`, the pIC50 was 5.40.

Consider `N/C(=N\OC(=O)c1cccc2ccccc12)c1ccncc1`, for which the pIC50 is 4.39.

For `CCN(CC1COc2ccccc2O1)C(=S)Nc1ccccc1` (stereo unspecified), the pIC50 was 4.19.

Consider `CCOC(=O)c1ccc(N2C(=O)CC(N3CCC(C(=O)OCC)CC3)C2=O)cc1` (stereo unspecified), for which the pIC50 is 4.82.

Take `Cc1cc(C)n(-c2nnc(NC34CC5CC(CC(C5)C3)C4)nn2)n1`: the pIC50 is 4.33.

Take `COC(=O)c1cc(C)[nH]c2c(C)cc3nc4ccccc4c3c12`: the pIC50 is 4.68.

With `Cc1ccccc1SCC(=O)Nc1cc(C(F)(F)F)ccc1N1CCOCC1`, the pIC50 was 4.55.

Turning to `CC1=NN(c2nc(-c3ccc(Cl)cc3)cs2)C(=O)C1`, the pIC50 was 4.47.

As to `Cc1ccc(-n2cc(-c3ccc([N+](=O)[O-])cc3)[nH]c2=S)c(C)c1`, the pIC50 is 4.06.

For the molecule `Cc1nn(Cc2ccc(Cl)cc2)c(C)c1NC(=O)c1ccc([N+](=O)[O-])cc1`, the pIC50 was 4.47.

For the molecule `CCCCN1/C(=C/c2ccc3ccccc3[n+]2CC)Sc2ccccc21`, the pIC50 is 4.72.

On to `O=C(C1CCCN(S(=O)(=O)c2cccc3nsnc23)C1)N1CCc2ccccc21` (stereo unspecified), for which the pIC50 was 4.09.

For the molecule `COc1cc(C(=O)Nc2ccc(Nc3ccccc3)cc2)cc(OC)c1OC`, the IC50 is > 100 µM (inactive).

Turning to `CCCN(CC1COc2ccccc2O1)C(=S)Nc1ccc(C)cc1` (stereo unspecified), the pIC50 was 4.47.

Regarding `S=C(NN=C1C2CC3CC(C2)CC1C3)Nc1ccccc1`, the pIC50 was 4.71.

For the molecule `COc1ccc(CCNC(=O)NC23CC4CC(CC(C4)C2)C3)cc1`, the pIC50 was 4.29.

Take `CN(C)S(=O)(=O)c1cccc(NC(=O)COc2cccc3ccccc23)c1`: the IC50 was > 100 µM (inactive).

Consider `N/C(=N\OC(=O)c1cccc(Cn2cc(C(F)(F)F)ccc2=O)c1)c1ccccc1`, for which the pIC50 was 4.63.

With `COc1ccc(/C(N)=N/OC(=O)c2cccs2)cc1OC`, the pIC50 is 4.37.

Take `CCOc1cc(-c2c(C#N)c(N)nc3c2CCCC3C)ccc1O` (stereo unspecified): the pIC50 is 4.36.

Take `CCOC(=O)c1c(-c2ccc(C)o2)csc1NC(=S)NC(=O)N(C)C`: the pIC50 is 4.71.

As for `Cc1ccc(/C(N)=N/OC(=O)c2ccc3c(c2)OCO3)cc1`, the pIC50 was 5.03.

Consider `C=CC(C)(C)c1c(O)c(CC=C(C)C)c(O)c2c(=O)c3ccc(O)c(O)c3oc12`, for which the pIC50 is 4.51.

As for `O=C(/C=C/c1cccs1)c1cc(Br)ccc1OC(=O)N1CCOCC1`, the pIC50 was 4.44.

As for `Clc1ccc(Cn2c(/C=C/c3ccco3)nc3ccccc32)cc1`, the pIC50 was 4.34.

As to `COC(=O)COc1ccc(S(=O)(=O)N2CCN(c3ccccc3F)CC2)cc1C`, the IC50 is > 100 µM (inactive).

In the case of `O=C(Nc1cc(Sc2ccccn2)cc([N+](=O)[O-])c1)c1cccc(F)c1`, the pIC50 was 4.06.

Turning to `O=C(CN1CCN(S(=O)(=O)c2ccc(F)cc2)CC1)Nc1ccc(Cl)c(C(F)(F)F)c1`, the pIC50 is 4.73.

As to `Oc1ccc(-c2nccc(-c3ccc(Cl)cc3Cl)n2)cc1`, the pIC50 was 4.43.

In the case of `O=C(Nc1ccc(N2CCN(C(=O)c3cccs3)CC2)cc1)c1cccc(F)c1`, the pIC50 was 4.39.

With `CCOc1ccccc1N1C(=O)CC(Sc2n[nH]c(-c3ccccc3)n2)C1=O` (stereo unspecified), the pIC50 was 4.97.

For the molecule `CCc1nn(-c2ccccc2)c(=S)c2ccccc12`, the pIC50 was 4.64.

For `C/C(=N\N=c1/sc2ccccc2n1C)c1ccccn1`, the pIC50 is 4.34.

`CC(C)c1nnc(NC(=O)CCS(=O)(=O)c2nc(-c3cccs3)cc(C(F)(F)F)n2)s1`: the pIC50 is 4.92.

Regarding `C=CCc1cccc(CNc2nc3ccccc3n2C(C)C)c1O`, the pIC50 is 4.21.

As for `O=C(Nc1ccccc1)c1cccnc1NCCc1ccccc1`, the pIC50 was 4.13.

For the molecule `C=C(C)COc1ccc(-c2[nH]ncc2Oc2ccccc2OC)c(O)c1`, the IC50 is > 100 µM (inactive).

As for `Cc1ccc(N2C(=O)CC(Sc3cccs3)C2=O)cc1` (stereo unspecified), the pIC50 is 4.62.

Consider `CC(C)Cn1c2c(c(O)c(C(=O)Nc3nccs3)c1=O)CCCC2`, for which the pIC50 was 4.01.

With `Clc1cccc(Cl)c1/C=C/c1ccn[nH]1`, the pIC50 was 4.64.

On to `COc1c(/C=C2\SC(=Nc3ccccc3Cl)NC2=O)cccc1[N+](=O)[O-]`, for which the pIC50 is 4.65.

Consider `NC(=NCCCCCCN=C(N)/N=C(\N)Nc1ccc(Cl)cc1)/N=C(\N)Nc1ccc(Cl)cc1`, for which the pIC50 is 4.92.

Take `CCOC(=O)c1sc(-c2ccc(Br)cc2)cc1N`: the pIC50 is 4.73.

Regarding `CSc1ccc(/C=C/C(=O)c2ccc(NC(=O)C(C)C)cc2)cc1`, the pIC50 was 4.69.

As for `Fc1ccc(CNC(=S)Nc2cccc(C(F)(F)F)c2)cc1`, the pIC50 is 4.79.

With `N/C(=N\OC(=O)c1cccc(Cl)c1)c1ccccn1`, the negative logarithm of the IC50 (pIC50) is 4.57.

Turning to `FC(F)(F)c1ccc(NC(=S)NC2CCCCC2)cc1`, the pIC50 was 4.56.

Take `O=C(c1ccc2ncsc2c1)N1CCN(c2cccc(C(F)(F)F)c2)CC1`: the pIC50 was 4.42.

Regarding `Cc1cc(N/N=C/c2ccc(Cl)cc2)nc(NCc2ccccc2)n1`, the pIC50 was 4.44.

Regarding `C/C(=N\NC(=S)Nc1cccc(C)c1)c1cc2ccccc2o1`, the pIC50 is 4.32.

Turning to `Fc1ccccc1CNC(=S)Nc1cccc(C(F)(F)F)c1`, the pIC50 is 4.98.

Turning to `COc1ccc(-c2sc3cc4c(cc3c2C#CC2(N)CCCCC2)OCO4)cc1`, the pIC50 is 4.90.

Regarding `COc1ccc(C(=O)O/N=C(\N)c2ccc(Br)cc2)cc1`, the pIC50 is 4.92.

Take `O=C(C1CCN(C2CC(=O)N(c3cccc(Cl)c3)C2=O)CC1)N1CCCC1` (stereo unspecified): the pIC50 was 4.74.
